Active and inactive are the calls of the source.
Columns and labels:
[1] = test system: Streptococcus sp. 'group A'; assay: Streptococcus pyogenes SK(-)GAS viability under kanamycin – luminescence, BacTiterGlo, confirmation, counter-screen for streptokinase expression inhibitor project, dose response (AID 1900); format: functional, organism-based
[2] = viability of PTEN-deleted HCT116 cells – cell-based, HCT116 PTEN knockout, dose response (AID 1047); format: functional;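 note: HCT116 colon tumor cells with PTEN knocked out; cells exposed to compound for 60 hours before readout; potency for loss of cell viability measured by luminescence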
[3] = A Cell Based Secondary Assay To Explore Cytotoxicity of Compounds that Sensitize Mycobacterium Tuberculosis to Beta-Lactam Antibiotics.; format: functional
Streptococcus = assay: GAS UMAA2166 growth inhibition – luminescence, BacTiterGlo, counter-screen for streptokinase expression inhibitor project, dose response (AID 1915); format: functional, organism-based;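 note: potency for reduction of bacterial viability or growth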
[4] = viability of HCT116 lacking mutant beta-catenin – cell-based, human colon tumor, dose response (AID 1045); format: functional;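 note: HCT116 colon tumor cells with beta catenin knocked out; cells exposed to compound for 60 hours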
INS1 = assay: INS-1E survival protection against cytokine death – cell-based, luminescence, retest, dose response (AID 449756); format: functional; conditions: Rattus norvegicus;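 note: cell death triggered by IL-1 beta plus TNF-alpha plus IFN-gamma mixture; protective hits raise ATP signal compared with cytokine alone wells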
[5] = Luminescence-based dose response cell-based high throughput screening assay for cytotoxic compounds using the IEC-6 intestinal epithelial cell line. [Related pubchem assays: 1858 (Summary AID.), 1825 (Counterscreen.), 1907 (Confirmation screen.)]; format: functional
[6] = NIH3T3 cell viability loss – ATP luminescence, mouse fibroblasts, counter-screen, dose response (AID 2010); format: functional, cell-based;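 note: cells exposed to compound for about 90 hours before reading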
[7] = Trypanosoma cruzi growth suppression in host cells – NIH3T3 host cells, beta-gal luminescence, confirmation (AID 2044); format: functional, cell-based;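 note: intracellular parasites grown in NIH/3T3 mouse fibroblasts as host cells; luminescent beta-galactosidase reporter signal from transgenic T. cruzi replicating inside host cells; inhibitors lower the luminescence signal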
[8] = Luminescence Cell-Based Dose Confirmation to Identify Activators of 5'UTR Stem-Loop Driven Alpha-Synuclein mRNA Translation in H4 Neuroglioblastoma Cells. [Related pubchem assays: 1829 (Project Summary), 1814 (Primary HTS)]; format: functional
[9] = Luminescence Cell-Based Dose Response HTS to Identify Activators of Luciferase Translation or Activity in H4 […] Cells. [Related pubchem assays: 1829 (Project Summary), 1814 (Primary HTS)]; format: functional
[10] = Luminescence Cell-Based Dose Response to Identify Activators of Luciferase Translation or Activity in H4-C Neuroglioblastoma Cells. [Related pubchem assays: 1829 (Project Summary), 1814 (Primary HTS)]; format: functional
[11] = Luminescence Cell-Based Dose Response to Identify Activators of 5'UTR Stem-Loop Driven Prion Protein mRNA Translation in H4-C Neuroglioblastoma Cells. [Related pubchem assays: 1829 (Project Summary), 1814 (Primary HTS)]; format: functional
H4 = assay: Luminescence Cell-Based Dose Response HTS to Identify Activators of 5'UTR Stem-Loop Driven Prion Protein mRNA Translation in H4 Neuroglioblastoma Cells. [Related pubchem assays: 1829 (Project Summary), 1814 (Primary HTS)]; format: functional; conditions: Homo sapiens
[12] = Luminescence Cell-Based Dose Confirmation HTS to Identify Activators of 5'UTR Stem-Loop Driven Alpha-Synuclein mRNA Translation in H4 Neuroglioblastoma Cells. [Related pubchem assays: 1829 (Project Summary), 1814 (Primary HTS)]; format: functional
[13] = CCR5-tropic HIV-1 fusion blockers – cell-based, CCR5-tropic Env, dose response (AID 2279); format: functional
[14] = viability of uninfected HEp-2 cells – cell-based, HTS, cytotoxicity control for RSV inhibitor project, dose response (AID 2410); format: functional; conditions: human respiratory syncytial virus
[15] = molecular target: T1, Carboxy-terminal domain RNA polymerase II polypeptide A small phosphatase 1 (Homo sapiens, UniProt Q9GZU7); assay: CTDSP1 inhibitors, concentration-response, biochemical, absorbance readout, ultra-high-throughput screen actives (AID 540297); format: functional
T1 sequence (Q9GZU7 whole entry): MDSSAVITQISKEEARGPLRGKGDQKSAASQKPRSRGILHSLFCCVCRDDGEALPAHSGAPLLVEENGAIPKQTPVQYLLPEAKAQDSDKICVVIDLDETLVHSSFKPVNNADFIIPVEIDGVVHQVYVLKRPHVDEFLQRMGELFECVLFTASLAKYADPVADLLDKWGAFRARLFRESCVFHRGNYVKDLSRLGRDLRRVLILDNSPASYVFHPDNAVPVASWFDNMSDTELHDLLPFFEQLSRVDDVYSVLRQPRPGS

Estrogen receptor = molecular target: T2, Estrogen receptor (Homo sapiens, UniProt P03372);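 note: potency for inhibiting coactivator peptide recruitment to the receptor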
T2 sequence (P03372 whole entry): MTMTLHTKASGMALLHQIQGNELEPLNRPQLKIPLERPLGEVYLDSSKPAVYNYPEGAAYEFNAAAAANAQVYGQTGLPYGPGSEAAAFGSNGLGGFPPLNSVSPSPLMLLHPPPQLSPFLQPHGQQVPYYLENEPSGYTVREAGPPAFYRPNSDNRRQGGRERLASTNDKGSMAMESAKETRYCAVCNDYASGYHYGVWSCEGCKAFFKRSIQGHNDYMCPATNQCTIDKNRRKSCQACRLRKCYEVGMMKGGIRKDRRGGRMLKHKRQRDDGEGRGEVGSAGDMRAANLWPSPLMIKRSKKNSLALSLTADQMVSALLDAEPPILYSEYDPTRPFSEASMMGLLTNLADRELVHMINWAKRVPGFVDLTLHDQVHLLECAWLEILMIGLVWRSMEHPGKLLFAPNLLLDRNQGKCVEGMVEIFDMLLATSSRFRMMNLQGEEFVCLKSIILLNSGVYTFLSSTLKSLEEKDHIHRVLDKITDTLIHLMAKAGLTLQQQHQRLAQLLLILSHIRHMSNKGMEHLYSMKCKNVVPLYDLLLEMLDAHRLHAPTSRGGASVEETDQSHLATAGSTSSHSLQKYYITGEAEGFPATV

[16] = molecular target: T3, Aryl hydrocarbon receptor (Homo sapiens, UniProt P35869); assay: Luminescence-based cell-based high throughput dose response assay for activators of the Aryl Hydrocarbon Receptor (AHR). [Related pubchem assays: 2796 (Primary screen (AHR activators in singlicate)), 2845 (Confirmation screen (AHR activators in triplicate)), 434939 (Counterscreen (PXR activators in triplicate)), 2804 (Summary (AHR activators))]; format: ADME
T3 sequence (P35869 whole entry): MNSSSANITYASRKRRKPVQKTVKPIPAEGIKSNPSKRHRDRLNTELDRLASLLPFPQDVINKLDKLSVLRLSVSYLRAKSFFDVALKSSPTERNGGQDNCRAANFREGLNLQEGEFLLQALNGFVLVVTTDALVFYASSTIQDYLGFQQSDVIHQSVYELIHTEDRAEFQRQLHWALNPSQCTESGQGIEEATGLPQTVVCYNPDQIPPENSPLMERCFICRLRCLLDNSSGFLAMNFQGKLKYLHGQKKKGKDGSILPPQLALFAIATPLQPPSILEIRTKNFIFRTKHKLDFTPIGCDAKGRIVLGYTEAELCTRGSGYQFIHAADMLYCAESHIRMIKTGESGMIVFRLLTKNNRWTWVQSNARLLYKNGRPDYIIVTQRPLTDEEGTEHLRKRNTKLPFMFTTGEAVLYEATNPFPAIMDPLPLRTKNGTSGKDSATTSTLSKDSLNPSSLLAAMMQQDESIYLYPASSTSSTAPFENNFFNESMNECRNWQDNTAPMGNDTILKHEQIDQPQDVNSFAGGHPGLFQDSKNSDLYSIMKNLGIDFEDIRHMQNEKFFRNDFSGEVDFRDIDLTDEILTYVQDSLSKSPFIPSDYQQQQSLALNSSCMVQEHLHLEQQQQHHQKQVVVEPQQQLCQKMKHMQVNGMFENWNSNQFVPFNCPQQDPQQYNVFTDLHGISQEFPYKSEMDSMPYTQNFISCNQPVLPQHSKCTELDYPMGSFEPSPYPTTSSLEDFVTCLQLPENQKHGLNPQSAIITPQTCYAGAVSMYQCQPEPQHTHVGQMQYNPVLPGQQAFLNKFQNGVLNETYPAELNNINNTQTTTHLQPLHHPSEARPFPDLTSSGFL

[17] = molecular target: T4, Heat shock factor protein 1 (Mus musculus, UniProt P38532); assay: decrease of HSF1-responsive luciferase luminescence – cell-based, NIH3T3, dose retest, confirmation (AID 2382); format: functional;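 note: NIH3T3 fibroblasts with HSF1-driven luciferase reporter stressed by proteasome inhibitor MG132; luminescence from HSF1-driven luciferase expression after 8 hours of MG132 stress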
T4 sequence (P38532 whole entry): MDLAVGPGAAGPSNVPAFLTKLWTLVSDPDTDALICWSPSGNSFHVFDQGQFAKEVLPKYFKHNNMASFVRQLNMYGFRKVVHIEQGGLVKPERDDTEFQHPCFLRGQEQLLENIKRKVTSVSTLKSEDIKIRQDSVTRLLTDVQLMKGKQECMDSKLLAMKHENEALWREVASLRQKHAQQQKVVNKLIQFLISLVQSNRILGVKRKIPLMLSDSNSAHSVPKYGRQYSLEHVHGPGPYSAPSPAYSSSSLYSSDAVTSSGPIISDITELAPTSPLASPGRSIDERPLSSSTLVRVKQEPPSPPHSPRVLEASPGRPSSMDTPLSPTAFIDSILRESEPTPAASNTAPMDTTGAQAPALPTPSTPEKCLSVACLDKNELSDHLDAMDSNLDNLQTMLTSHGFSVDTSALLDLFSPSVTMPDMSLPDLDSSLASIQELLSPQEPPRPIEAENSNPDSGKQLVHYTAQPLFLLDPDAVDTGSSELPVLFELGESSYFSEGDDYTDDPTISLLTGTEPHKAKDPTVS

Aminopeptidase N = molecular target: T5, Aminopeptidase N (Plasmodium falciparum FcB1/Columbia, UniProt O96935); assay: malaria alanyl aminopeptidase activity blockers – biochemical, fluorogenic H-Leu-NHMec substrate, 1536-well (AID 1445); set-up: species or system Plasmodium falciparum 3D7, 3D7
T5 sequence (O96935 whole entry): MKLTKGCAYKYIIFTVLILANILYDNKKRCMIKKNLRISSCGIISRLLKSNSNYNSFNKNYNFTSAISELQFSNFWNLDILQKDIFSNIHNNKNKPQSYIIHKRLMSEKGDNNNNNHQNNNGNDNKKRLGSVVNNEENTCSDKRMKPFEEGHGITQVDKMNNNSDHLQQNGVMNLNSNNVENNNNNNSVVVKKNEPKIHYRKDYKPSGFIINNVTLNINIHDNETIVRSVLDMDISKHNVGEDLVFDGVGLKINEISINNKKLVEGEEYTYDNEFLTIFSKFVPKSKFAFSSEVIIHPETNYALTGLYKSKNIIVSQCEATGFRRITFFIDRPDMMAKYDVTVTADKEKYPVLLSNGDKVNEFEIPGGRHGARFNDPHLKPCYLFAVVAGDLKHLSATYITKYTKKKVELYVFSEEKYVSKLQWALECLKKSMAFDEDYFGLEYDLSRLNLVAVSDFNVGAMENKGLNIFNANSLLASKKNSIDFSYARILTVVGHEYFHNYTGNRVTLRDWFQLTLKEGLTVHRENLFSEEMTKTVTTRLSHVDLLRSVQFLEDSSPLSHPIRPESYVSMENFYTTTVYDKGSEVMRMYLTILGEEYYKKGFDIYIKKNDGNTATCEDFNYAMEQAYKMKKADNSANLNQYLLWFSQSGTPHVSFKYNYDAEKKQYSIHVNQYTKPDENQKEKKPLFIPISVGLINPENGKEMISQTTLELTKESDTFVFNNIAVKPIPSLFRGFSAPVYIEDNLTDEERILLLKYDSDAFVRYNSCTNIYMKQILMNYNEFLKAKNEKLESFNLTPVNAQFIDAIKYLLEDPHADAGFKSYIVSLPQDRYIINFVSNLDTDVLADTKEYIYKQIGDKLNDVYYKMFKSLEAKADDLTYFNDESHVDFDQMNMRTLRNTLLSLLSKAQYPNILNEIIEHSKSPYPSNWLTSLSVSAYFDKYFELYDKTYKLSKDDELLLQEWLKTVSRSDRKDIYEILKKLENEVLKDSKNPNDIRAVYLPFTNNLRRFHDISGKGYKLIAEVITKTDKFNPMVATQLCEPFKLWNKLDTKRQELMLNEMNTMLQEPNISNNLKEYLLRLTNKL

Genome polyprotein = Genome polyprotein (dengue virus type 2, UniProt P29990); assay: flavivirus cap methylation enzyme inhibition – biochemical, confirmation dose response, primary screen (AID 588689); format: functional
Vero = assay: viability of Vero cells under compound – cytotoxicity control for flavivirus capping enzyme inhibitors (AID 588742); format: functional; conditions: Chlorocebus sabaeus

Genome polyprotein, sequence (P29990 2492-3391 limits assumed): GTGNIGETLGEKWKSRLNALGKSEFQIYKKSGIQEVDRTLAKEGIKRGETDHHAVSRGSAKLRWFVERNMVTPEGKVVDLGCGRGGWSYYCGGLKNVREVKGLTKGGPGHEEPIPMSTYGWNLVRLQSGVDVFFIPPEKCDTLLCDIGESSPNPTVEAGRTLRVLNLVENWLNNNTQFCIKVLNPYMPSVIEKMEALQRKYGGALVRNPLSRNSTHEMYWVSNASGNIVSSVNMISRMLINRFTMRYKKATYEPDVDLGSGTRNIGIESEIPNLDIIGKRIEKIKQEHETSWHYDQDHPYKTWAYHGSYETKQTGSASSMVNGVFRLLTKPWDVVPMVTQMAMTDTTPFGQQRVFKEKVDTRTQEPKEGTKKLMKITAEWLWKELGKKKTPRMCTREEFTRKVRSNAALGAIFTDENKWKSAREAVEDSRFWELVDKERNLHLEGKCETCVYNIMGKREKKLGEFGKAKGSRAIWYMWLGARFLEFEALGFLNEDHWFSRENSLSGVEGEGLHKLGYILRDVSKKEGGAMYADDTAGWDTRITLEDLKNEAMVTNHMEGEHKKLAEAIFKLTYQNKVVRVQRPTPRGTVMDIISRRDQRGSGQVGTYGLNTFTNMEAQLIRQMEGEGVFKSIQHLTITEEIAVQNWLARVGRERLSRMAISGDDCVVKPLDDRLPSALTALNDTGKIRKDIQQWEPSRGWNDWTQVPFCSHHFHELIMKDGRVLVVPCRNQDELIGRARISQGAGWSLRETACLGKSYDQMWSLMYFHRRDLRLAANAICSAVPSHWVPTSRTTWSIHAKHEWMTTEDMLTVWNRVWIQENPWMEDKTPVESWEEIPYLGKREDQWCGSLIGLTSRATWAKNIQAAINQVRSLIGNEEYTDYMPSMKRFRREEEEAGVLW

C/C(=N/NC(=O)c1cccs1)c1c(C)[nH]n(-c2nc3ccccc3s2)c1=O
EC50 [1]: 5.77 µM (active) | EC50 [2]: 11.2 µM (active) | CC50 [3]: 25.8 µM (active) | EC50 (Streptococcus): 9.42 µM (active) | EC50 [4]: 10.9 µM (active) | AC50 (INS1): 7.34 µM (active)

OC1=C2C(=Nc3cc4c(cc3C2c2ccc(F)cc2)OCCO4)CO1 (centres undefined)
IC50 [5]: 0.0539 µM (active)

Cc1occc1C(=O)NC1CCCN(Cc2ccc(CC(C)C)cc2)C1 (centres undefined)
EC50 (cells): 0.073 µM (active) | EC50 [6]: > 60 µM (not active) | EC50 [7]: < 0.1 µM (active)

O=C(CCC1CCCN(Cc2ccc3c(c2)CCO3)C1)NCc1ccc(F)c(F)c1 (centres undefined)
EC50 (cells): 0.011 µM (active) | EC50 [6]: > 60 µM (not active) | EC50 [7]: < 0.1 µM (active)

Cc1cc2nc(SCCN3CCOCC3)[nH]c2cc1C
EC50 [8]: 0.345 µM (active) | EC50 [9]: 1.88 µM (active) | EC50 [10]: 0.338 µM (active) | EC50 [11]: 0.61 µM (active) | EC50 (H4): 0.22 µM (active) | EC50 [12]: < 0.1 µM (active)

COc1cc(/C=C2\C(=N)N3N=C(S(C)(=O)=O)SC3=NC2=O)ccc1OCCOc1ccccc1C
IC50 [13]: 28.5 µM (active) | CC50 [14]: 26.3 µM (active) | IC50 [15]: 3.51 µM (active)

COc1cccc(-c2nnc(NC(=O)Cc3cccs3)s2)c1
IC50 (Estrogen receptor): 19.1 µM (active)

COc1cccc(C(=O)O/N=C(\N)c2ccc([N+](=O)[O-])cc2)c1
EC50 [16]: 3.57 µM (active)

CC(=O)Nc1cc(-c2ccc(Cl)cc2)n[nH]1
EC50 [16]: 1.8 µM (active)

CCn1c(C)cc(/C=C2/NC(=O)N(c3ccccc3)C2=O)c1C
EC50 [8]: 0.307 µM (active) | EC50 [9]: < 0.1 µM (active) | EC50 [10]: 0.236 µM (active) | EC50 [11]: 0.505 µM (active) | EC50 (H4): > 120 µM (not active) | EC50 [17]: > 195 µM (not active)

CSc1nnc(-c2ccccc2/N=C/c2c(C)nn(-c3ccc4ccccc4c3)c2O)c(O)n1
IC50 [13]: 3.61 µM (active) | IC50 (Aminopeptidase N): 31.9 µM (active) | EC50 [9]: 8.3 µM (active) | IC50 (Genome polyprotein): 37.5 µM (active) | EC50 (H4): 46.3 µM (active) | CC50 (Vero): > 40 µM (active) | EC50 [12]: 9.56 µM (active)

COc1ccc(C)cc1N=C(N)Nc1nc(C)cc(C)n1
EC50 [16]: 3.95 µM (active)
